“Also recorded” adds a separate entry of the source.
Legend:
RAEC monolayers [1] = assay: Stretch-associated permeability of RAEC monolayers (cyclic stretch); type: cell-based, rat; details: 10 min of stretch; for stretch-associated permeability: pretreated, vs vehicle controls
Procedure: As evidence that NRG1, HER2, and HER3 regulate stretch-associated increases in permeability, RAEC monolayers (N≥3-7/group) were exposed to 10 min of stretch, and compared vehicle controls (VC, black bars, FIG. 16—Appendix I) with those pretreated microRNA miR15-b to reduce NRG1 expression (FIG. 7, APPROACH—Appendix I), TAPI2 to inhibit ADAM17 and NRG1 cleavage (diagonal striped bars, FIG. 16—Appendix I), HER3 mAb to inhibit NRG1 binding (dark gray bars), or AG825 (white bars) to inhibit HER2 activation.
each outcome measure, at each timepoint), at 0, 25, 37% ASA. To assess the effects of a longer stretch duration, RAEC monolayers from additional isolations (n=7 rats) were also subjected to cyclic stretch ASA of 0% (control) or 25% for 6 hrs. […] In RAECs, results were compared to stretched and unstretched monolayers with separate treatments to evaluate downstream signaling pathway inhibition of ERK (U0126), PI3K (Wortmannin), Rac1 (EHT-1864 and ERK 1/2 siRNA [97] and LIMK1 (BMS4). Additional groups had NRG1 expression decreased by overexpressing miRNA-15b (negative regulator of NRG1), using scrambled oligonucleotide as a negative control. As a validation of or hierarchical platform, TJ expression, phosphorylation and arrangement results in PCLS were compared with RAECs. In all groups, monolayers were assigned to one of four quantitative outcome evaluations: alveolar paracellular permeability via BODIPY-oubain and streptavidin-FITC methods (see INNOVATION—Appendix I), TJ and actin arrangement by fixing RAECs and PCLSs for qualitative immunofluorescence, total and phosphorylated TJ content via Western blot, or ZO-1-bound TJ proteins by isolating protein for co-IP using ZO-1 as bait, followed by Western blotting for occludin, claudins 4, 7, and 18, and F-actin in the ZO-1 protein fraction.

RAEC monolayers [2] = assay: TJ protein dissociation from ZO-1 (co-IP with ZO-1 as bait) in stretched RAEC monolayers; type: cell-based, rat; details: RAECs, 10 min of cyclic stretch
Description: In the extracellular domain, the TJ is composed of claudins and occludin bound to TJ proteins of neighboring cells. In the intracellular domain, the claudins and occludin bind to actin via ZO-1. […] The present study tests the hypothesis that TJ dissociation between the ZO1 and the claudins and occludin is the primary causal mechanism for HER2-HER3 mediated barrier disruption. As preliminary evidence, RAEC monolayers (N=4) that were pretreated with NRG1 cleavage inhibitor TAPI-2, HER2 inhibitor AG825, or vehicle (VC) were stretched. […] The present study also confirmed stretch-induced TJ protein dissociation in lung slices.
each outcome measure, at each timepoint), at 0, 25, 37% ASA. To assess the effects of a longer stretch duration, RAEC monolayers from additional isolations (n=7 rats) were also subjected to cyclic stretch ASA of 0% (control) or 25% for 6 hrs. For every isolation, functional relationships will be confirmed in unstretched and stretched control groups treated with AG825 (HER2 inhibitor), anti-HER3ab (HER3 inhibitor), and tempol or tiron (superoxide scavenger), and compared with unstretched RAEC and PCLS treated with PMA to activate HER3 via NRG1 shedding as a positive control. In RAECs, results were compared to stretched and unstretched monolayers with separate treatments to evaluate downstream signaling pathway inhibition of ERK (U0126), PI3K (Wortmannin), Rac1 (EHT-1864 and ERK 1/2 siRNA [97] and LIMK1 (BMS4). Additional groups had NRG1 expression decreased by overexpressing miRNA-15b (negative regulator of NRG1), using scrambled oligonucleotide as a negative control. As a validation of or hierarchical platform, TJ expression, phosphorylation and arrangement results in PCLS were compared with RAECs. In all groups, monolayers were assigned to one of four quantitative outcome evaluations: alveolar paracellular permeability via BODIPY-oubain and streptavidin-FITC methods (see INNOVATION—Appendix I), TJ and actin arrangement by fixing RAECs and PCLSs for qualitative immunofluorescence, total and phosphorylated TJ content via Western blot, or ZO-1-bound TJ proteins by isolating protein for co-IP using ZO-1 as bait, followed by Western blotting for occludin, claudins 4, 7, and 18, and F-actin in the ZO-1 protein fraction.

rodent model of VILI = assay: In vivo rodent model of VILI (large tidal volume mechanical ventilation); parameters: species or system rat; details: rats, Vt=25 ml/kg for 4 hrs, PEEP=0, AG825 1.67 mg/kg/day IP, 3 days
Procedure: Ventilated rats received one of […] treatments, intratracheal TAPI2 (used in vivo to inhibit NRG1 sheddase ADAM17) or […] AG825 or intravenous trastuzumab (to inhibit HER2), or will serve as ventilated vehicle-treated controls. Treatment windows were varied from 3 days prior ventilation to concurrent application, to identify an optimal, clinically-relevant therapeutic dose and timing. Dynamic compliance will be measured every 30 min. All animals were injected with FITC-albumin prior to ventilation, and alveolar permeability assessed prior to sacrifice by quantifying fluorescence of bronchoalveolar lavage (BAL) fluid normalized to serum fluorescence. Lungs were formalin-fixed after BAL, and hematoxylin/eosin stained sections were evaluated for hyaline membrane formation, interstitial edema, margination and infiltration of neutrophils, as well as intra-alveolar and perivascular hemorrhage. Compliance, permeability, and lung histology were compared across groups.

[3] = test system: mice treated with bleomycin to induce lung injury; details: relative to untreated mice; cited from earlier work

COc1cc(/C=C(\C#N)C(N)=O)cc(CSc2nc3ccccc3s2)c1O [AG825]
barrier properties vs. unstretched VC (RAEC monolayers [1]): maintained barrier properties at unstretched levels | stretch-associated permeability (RAEC monolayers [1]): significantly reduced stretch-associated permeability | TJ dissociation with stretch (RAEC monolayers [2]): reduces stretch-induced tight junction dissociation; also recorded: prevented | levels of TJ bound to ZO-1 after stretch vs unstretched controls (RAEC monolayers [2]): equal or greater after stretch than unstretched controls | protection against VILI (rodent model of VILI): dramatically protects against VILI | lung compliance (rodent model of VILI; 1.67 mg/kg/day): preserves lung compliance; also recorded: significant improvements in lung compliance | permeability (barrier properties) in vivo (rodent model of VILI; 1.67 mg/kg/day): preserves barrier properties/moderates unwanted permeability; also recorded: significant improvements in lung compliance and permeability

CC(C)C[C@H](CC(=O)NO)C(=O)N[C@H](C(=O)N[C@@H](C)C(=O)NCCN)C(C)(C)C [TAPI2]
stretch-associated permeability (RAEC monolayers [1]): significantly reduced stretch-associated permeability | TJ dissociation with stretch (RAEC monolayers [2]): reduces stretch-induced tight junction dissociation; also recorded: prevented | levels of TJ bound to ZO-1 after stretch vs unstretched controls (RAEC monolayers [2]): equal or greater after stretch than unstretched controls | alveolar protein content [3]: decreased alveolar protein content
